Laboratory results published in EP4273147A1, “SUBSTITUTED SPIROLACTAMS, SALTS THEREOF AND THEIR USE AS HERBICIDALLY ACTIVE SUBSTANCES” (Bayer Aktiengesellschaft, priority 2022, dated 2023).

Key:
[1] = tested on: ZEAMX; experiment: Pre-emergence effects on crop plants (Table D1); format: in vivo, Zea mays; settings: crop plant, visual grading after ca. 3 weeks
Source text: Seeds of mono- and dicotyledonous weed plants and crop plants were sown, in plastic or organic planting pots, in sandy loam and covered with soil. The compounds according to the invention, formulated in the form of wettable powders (WP) or as emulsifiable concentrates (EC), were applied to the surface of the covering soil as aqueous suspension or emulsion, with the addition of 0.5% of an additive, at an application rate of 600 1 of water/ha (converted).
Following treatment, the pots were placed in a greenhouse and kept under optimum growth conditions for the test plants.

[2] = tested on: TRZAS; experiment: Post-emergence effects on crop plants (Table F2); format: in vivo, Triticum aestivum; settings: application rate 320 g/ha, crop plant TRZAS
Source text: (§1) 2 to 3 weeks after sowing, the test plants were sprayed in the single-leaf stage.

[3] = tested on: ECHCG; experiment: Herbicidal pre-emergence action (Table A2); format: in vivo, Echinochloa crus-galli; settings: visual grading after ca. 3 weeks
Source text: (§2) Seeds of mono- and dicotyledonous weed plants were sown in plastic pots (double sowings with one species of mono- and one species of dicotyledonous weed plants per pot), in sandy loam, and covered with soil.

[4] = tested on: ECHCG; experiment: Herbicidal pre-emergence action, section C (Table C6); format: in vivo, Echinochloa crus-galli; settings: application rate 320 g/ha; visual grading after ca. 3 weeks
[5] = tested on: POAAN; experiment: Herbicidal post-emergence action (Table B7); format: in vivo, Poa annua
Method: (§3) Seeds of mono- and dicotyledonous weed plants were placed in plastic pots in sandy loam soil (doubly sown with in each case one species of mono- or dicotyledonous weed plants per pot), covered with soil and cultivated in a greenhouse under controlled growth conditions. 2 to 3 weeks after sowing, the test plants were treated at the one-leaf stage. […] After the test plants had been kept in the greenhouse under optimum growth conditions for about 3 weeks, the activity of the preparations was rated visually in comparison to untreated controls. For example, 100% activity = the plants have died, 0% activity = like control plants.

[6] = tested on: ECHCG; experiment: Herbicidal post-emergence action, section E (Table E5); format: in vivo, Echinochloa crus-galli; settings: application rate 320 g/ha; assessed visually after ca. 3 weeks
Source text: as §1

[7] = tested on: LOLRI; experiment: Herbicidal pre-emergence action (Table A3); format: in vivo, Lolium rigidum; settings: visual grading after ca. 3 weeks
Source text: as §2

[8] = tested on: ORYZA; experiment: Post-emergence effects on crop plants (Table F3); format: in vivo, Oryza sativa; settings: application rate 320 g/ha, crop plant ORYZA
Source text: as §1

[9] = tested on: GLXMA; experiment: Pre-emergence effects on crop plants (Table D4); format: in vivo, Glycine max; settings: crop plant, visual grading after ca. 3 weeks
[10] = tested on: BRSNW; experiment: Pre-emergence effects on crop plants (Table D5); format: in vivo, Brassica napus; settings: crop plant, visual grading after ca. 3 weeks
[11] = tested on: MATIN; experiment: Herbicidal pre-emergence action (Table A4); format: in vivo, Matricaria inodora; settings: application rate 1280 g/ha; visual grading after ca. 3 weeks
Source text: as §2

[12] = tested on: ALOMY; experiment: Herbicidal pre-emergence action (Table A9); format: in vivo, Alopecurus myosuroides; settings: application rate 1280 g/ha; visual grading after ca. 3 weeks
Source text: as §2

[13] = tested on: SETVI; experiment: Herbicidal pre-emergence action (Table A5); format: in vivo, Setaria viridis; settings: visual grading after ca. 3 weeks
Source text: as §2

[14] = tested on: STEME; experiment: Herbicidal pre-emergence action (Table A6); format: in vivo, Stellaria media; settings: visual grading after ca. 3 weeks
Source text: as §2

[15] = tested on: SETVI; experiment: Herbicidal pre-emergence action, section C (Table C10); format: in vivo, Setaria viridis; settings: visual grading after ca. 3 weeks
[16] = tested on: TRZAS; experiment: Pre-emergence effects on crop plants (Table D2); format: in vivo, Triticum aestivum; settings: crop plant, visual grading after ca. 3 weeks
[17] = tested on: ZEAMX; experiment: Post-emergence effects on crop plants (Table F1); format: in vivo, Zea mays; settings: application rate 320 g/ha, crop plant ZEAMX
Source text: as §1

[18] = tested on: POAAN; experiment: Herbicidal pre-emergence action (Table A7); format: in vivo, Poa annua; settings: visual grading after ca. 3 weeks
Source text: as §2

[19] = tested on: ALOMY; experiment: Herbicidal pre-emergence action, section C (Table C2); format: in vivo, Alopecurus myosuroides; settings: application rate 320 g/ha; visual grading after ca. 3 weeks
[20] = tested on: BRSNW; experiment: Post-emergence effects on crop plants (Table F5); format: in vivo, Brassica napus; settings: application rate 320 g/ha, crop plant BRSNW
Source text: as §1

[21] = tested on: ECHCG; experiment: Herbicidal post-emergence action (Table B3); format: in vivo, Echinochloa crus-galli; settings: application rate 1280 g/ha; rated visually after about 3 weeks
Method: as §3

[22] = tested on: DIGSA; experiment: Herbicidal pre-emergence action (Table A12); format: in vivo, Digitaria sanguinalis; settings: application rate 1280 g/ha; visual grading after ca. 3 weeks
Source text: as §2

[23] = tested on: GLXMA; experiment: Post-emergence effects on crop plants (Table F4); format: in vivo, Glycine max; settings: crop plant GLXMA
Source text: as §1

[24] = tested on: DIGSA; experiment: Herbicidal pre-emergence action, section C (Table C5); format: in vivo, Digitaria sanguinalis; settings: application rate 320 g/ha; visual grading after ca. 3 weeks
[25] = tested on: VERPE; experiment: Herbicidal pre-emergence action (Table A11); format: in vivo, Veronica persica; settings: application rate 1280 g/ha; visual grading after ca. 3 weeks
Source text: as §2

[26] = tested on: VIOTR; experiment: Herbicidal pre-emergence action, section C (Table C12); format: in vivo, Viola tricolor; settings: application rate 320 g/ha; visual grading after ca. 3 weeks
[27] = tested on: AMARE; experiment: Herbicidal post-emergence action (Table B11); format: in vivo, Amaranthus retroflexus; settings: application rate 1280 g/ha
Method: as §3

[28] = tested on: KCHSC; experiment: Herbicidal pre-emergence action (Table A10); format: in vivo, Kochia scoparia; settings: visual grading after ca. 3 weeks
Source text: as §2

[29] = tested on: ABUTH; experiment: Herbicidal pre-emergence action (Table A1); format: in vivo, Abutilon theophrasti; settings: application rate 1280 g/ha; visual grading after ca. 3 weeks vs untreated controls (100% = plants have died off, 0% = as control plants)
Source text: as §2

Structure (SMILES)	post-emergence activity against TRZAS [2] [%]	pre-emergence activity against ECHCG ([3]; application rate 320 g/ha) [%]	pre-emergence activity against ECHCG [4] [%]	post-emergence activity against POAAN ([5]; application rate 1280 g/ha) [%]	pre-emergence activity against LOLRI ([7]; application rate 320 g/ha) [%]	post-emergence activity against ORYZA [8] [%]	pre-emergence activity against GLXMA ([9]; application rate 320 g/ha) [%]	pre-emergence activity against MATIN [11] [%]	pre-emergence activity against ALOMY [12] [%]	pre-emergence activity against SETVI ([13]; application rate 320 g/ha) [%]	pre-emergence activity against STEME ([14]; application rate 320 g/ha) [%]	pre-emergence activity against SETVI ([15]; application rate 80 g/ha) [%]	pre-emergence activity against TRZAS ([16]; application rate 80 g/ha) [%]	post-emergence activity against ZEAMX [17] [%]	pre-emergence activity against POAAN ([18]; application rate 320 g/ha) [%]	pre-emergence activity against ALOMY [19] [%]	post-emergence activity against BRSNW [20] [%]	pre-emergence activity against ECHCG ([3]; application rate 1280 g/ha) [%]	pre-emergence activity against LOLRI ([7]; application rate 1280 g/ha) [%]	pre-emergence activity against SETVI ([13]; application rate 1280 g/ha) [%]	also measured
Cc1ccccc1CN1CCCC2(CCCN(Cc3ccccc3F)C2=O)C1=O (racemic) [I-044]	10	100	100	90	100	0	0	100	90	90	90	100	0	0	90	80	0				pre-emergence activity against ZEAMX ([1]; application rate 80 g/ha): 0%; post-emergence activity against ECHCG [6]: 80%; pre-emergence activity against BRSNW ([10]; application rate 320 g/ha): 0%; post-emergence activity against ECHCG [21]: 90%
CC(c1c(F)cccc1F)N1CCCC2(CCCN(C(C)c3c(F)cccc3F)C2=O)C1=O (stereo not drawn) [I-074]	0					0	0		90	90	90			0		80	0	90	90		pre-emergence activity against ZEAMX ([1]; application rate 320 g/ha): 0%; pre-emergence activity against DIGSA [22]: 90%; pre-emergence activity against BRSNW ([10]; application rate 80 g/ha): 0%; post-emergence activity against GLXMA ([23]; application rate 80 g/ha): 0%; pre-emergence activity against DIGSA [24]: 100%; pre-emergence activity against VERPE [25]: 90%; pre-emergence activity against SETVI ([15]; application rate 320 g/ha): 90%; pre-emergence activity against TRZAS ([16]; application rate 320 g/ha): 20%; pre-emergence activity against POAAN ([18]; application rate 1280 g/ha): 100%; pre-emergence activity against VIOTR [26]: 90%
COc1c(F)ccc(CN2CCCC3(CCCN(Cc4ccc(F)c(OC)c4F)C3=O)C2=O)c1F (racemic) [I-019]				100							100				100					100	post-emergence activity against AMARE [27]: 100%
O=C1N(Cc2ccccc2)CCC12CCCN(Cc1ccccc1F)C2=O (racemic) [I-093]								90		100					100			100	100		pre-emergence activity against DIGSA [22]: 100%; post-emergence activity against POAAN ([5]; application rate 320 g/ha): 90%; pre-emergence activity against KCHSC ([28]; application rate 1280 g/ha): 90%; pre-emergence activity against STEME ([14]; application rate 1280 g/ha): 90%; pre-emergence activity against ABUTH [29]: 90%
O=C1N(Cc2ccsc2)CCCC12CCCN(Cc1cccc(F)c1F)C2=O (racemic) [I-072]	0	100	100		100	0		90				100	10	0		80	0			90	pre-emergence activity against KCHSC ([28]; application rate 320 g/ha): 90%; pre-emergence activity against GLXMA ([9]; application rate 80 g/ha): 0%; pre-emergence activity against BRSNW ([10]; application rate 80 g/ha): 20%; post-emergence activity against GLXMA ([23]; application rate 320 g/ha): 0%; pre-emergence activity against STEME ([14]; application rate 1280 g/ha): 90%; pre-emergence activity against POAAN ([18]; application rate 1280 g/ha): 90%
O=C1N(Cc2ccccc2F)CCC12CCN(Cc1ccccc1F)C2=O (racemic) [I-097]								90										90	90	100	pre-emergence activity against KCHSC ([28]; application rate 1280 g/ha): 90%; post-emergence activity against AMARE [27]: 90%
